This passage reports stool frequency results from patent US11266686B2, “Metal complexes and methods of treatment” (PROCYPRA THERAPEUTICS LLC, priority 2013, dated 2022).

The subject of this assay is MPTP lesioned mice. As to the kind of experiment: Stool frequency in MPTP lesioned mice. As to conditions: versus vehicle or untreated. In kind it is in vivo, C57BL/6 mice. The text has this: Several rodent models of Parkinson's Disease have shown gastrointestinal dysfunction, which has been correlated with the loss of neuronal subpopulations within the enteric nervous system. Intraperitoneal administration of MPTP (1-methyl-4-phenyl-1,2,3,6-tetrahydropyridine) caused a significant reduction in the number of dopaminergic neurons within the substantia nigra pars compacta of C57BL/6 mice. A reduction in neuronal subpopulations within the myenteric plexus of the ileum 21 days after lesioning was also detected and was concomitant with a reduction in stool frequency, indicative of digestive dysfunction.
Patients with neurological diseases, such as Parkinson's Diseases experiencing gastrointestinal disfunction such as constipation, may be associated with the loss of neuronal populations in conjunction with enteric glial cell reactivity within the myenteric plexus of the gastrointestinal tract. Treatment of these patients with metal complexes, such as CuATSM, that are neuroprotective in the central nervous system provides symptom release and also results in disease modifying in the gastrointestinal tract.
MPTP lesioned mice may be treated with the NCD of CuATSM, and the results are compared with untreated mice.

For the molecule `CNC1=NN=C(C)C(C)=NN=C(NC)[S][Cu][S]1` [CuATSM, Copper(II) diacetyl-di(N4-methyl)thiosemicarbazone, reference compound], the stool frequency entry was “improved stool frequency”.
